Measurements published in PMC7252906 (Toxicology and applied pharmacology, 2019).
Where “and” joins values, the source holds several entries; their conditions need not be identical. Equal entries are not always repeated. Where two headings read alike, the source gives them in different places.

Key:
[1] = Effect of DMAE on serum choline levels and conversion of DMAE to choline; type: in vivo, Wistar Han rats; conditions: male rats, gavage 500 mg/kg [^14C]DMAE, 1 h post-dose (remained up to 12 h); pre-dose approximately 17 ng/mL
[2] = Disposition of DMAE after gavage, rats and mice summarised together; type: in vivo, Wistar Han rats and B6C3F1 mice; conditions: range over groups
[3] = Radiochemical HPLC profiling of urine after [^14C]DMAE; conditions: Oral
[4] = as above; type: in vivo, Harlan Sprague Dawley rats
[5] = male Wistar rats, IV 11 mg/kg, 6 minutes post-dosing; ref Dormard et al. (1975); cited from earlier work
[6] = not given; remark: listed apart in the source
[7] = female B6C3F1 mice, gavage 10 mg/kg, 24 h
[8] = female B6C3F1 mice, gavage 10 mg/kg, 24 h, listed as [^14C]DMAE, 10 mg/kg
[9] = female B6C3F1 mice, gavage 100 mg/kg, 24 h
[10] = female B6C3F1 mice, gavage 100 mg/kg, 24 h, listed as [^14C]DMAE, 100 mg/kg
[11] = female B6C3F1 mice, gavage 500 mg/kg, 24 h
[12] = female B6C3F1 mice, gavage 500 mg/kg, 24 h, listed as [^14C]DMAE, 500 mg/kg
[13] = female B6C3F1 mice, gavage 500 mg/kg, 72 h
[14] = male B6C3F1 mice, gavage 500 mg/kg, 24 h
[15] = female Wistar Han rats, gavage 500 mg/kg, 24 h
[16] = male Wistar Han rats, IV 10 mg/kg, 24 h
[17] = male Wistar Han rats, IV 10 mg/kg, 24 h, listed as [^14C]DMAE, 10 mg/kg
[18] = male Wistar Han rats, gavage 10 mg/kg, 24 h

CN(C)CCO [DMAE, Dimethylaminoethanol]
mean serum choline level [1]: ~23 ng/mL | administered dose recovered in tissues (excluding GI tract) (B6C3F1 mice, oral, 24 h post-exposure, range over groups): 26–44% | % Dose Recovered, Feces [7]: 1.94 ±0.490 % dose | % Dose Recovered, Tissues and GI Tract (includes contents) [7]: 57.6 ± 3.00 % dose | % Dose Recovered, Total Recovered [7]: 99.3 ± 1.60 % dose | % Dose Recovered, VOCs [7]: 1.66 ± 0.340 % dose | percent radioactivity remaining in all tissues, excluding GI tract [7]: ~44% | % Dose Recovered, CO2 [8]: 22 % dose and 22.3 ± 3.68 % dose | % Dose Recovered, Urine [8]: 16 % dose and 15.8 ± 4.00 % dose | % Dose Recovered, Feces [9]: 1.10 ± 0.410 % dose | % Dose Recovered, Tissues and GI Tract (includes contents) [9]: 44.5 ± 1.70 % dose | % Dose Recovered, Total Recovered [9]: 81.6 ± 4.40 % dose | % Dose Recovered, VOCs [9]: 1.27 ± 0.160 % dose | percent radioactivity remaining in all tissues, excluding GI tract [9]: ~30% | % Dose Recovered, CO2 [10]: 16 % dose and 15.5 ± 0.600 % dose | % Dose Recovered, Urine [10]: 18 % dose and 17.9 ± 3.90 % dose | % Dose Recovered, Feces [11]: 0.713 ± 0.273 % dose | % Dose Recovered, Tissues and GI Tract (includes contents) [11]: 38.4 ± 16.1 % dose | % Dose Recovered, Total Recovered [11]: 97.1 ± 15.2 % dose | % Dose Recovered, VOCs [11]: 1.51 ± 0.210 % dose | percent radioactivity remaining in all tissues, excluding GI tract [11]: ~32% | % Dose Recovered, CO2 [12]: 13 % dose and 13.2 ± 1.80 % dose | % Dose Recovered, Urine [12]: 43 % dose and 43.4 ± 11.5 % dose | % Dose Recovered, CO2 [13]: 21.0 ± 2.20 % dose | % Dose Recovered, Feces [13]: 2.24 ± 1.31 % dose | % Dose Recovered, Tissues and GI Tract (includes contents) [13]: 19.0 ± 3.70 % dose | % Dose Recovered, Total Recovered [13]: 97.2 ± 6.40 % dose | % Dose Recovered, Urine [13]: 53.8 ± 3.90 % dose | % Dose Recovered, VOCs [13]: 1.08 ± 0.190 % dose | total administered dose recovered in tissues [13]: 16% | radioactivity in feces and VOCs (female B6C3F1 mice, gavage, across all dose groups): < 2% | % Dose Recovered, CO2 [14]: 17.8 ± 1.10 % dose | % Dose Recovered, Feces [14]: 13.7 ± 14.9 % dose | % Dose Recovered, Tissues and GI Tract (includes contents) [14]: 31.8 ± 1.50 % dose | % Dose Recovered, Total Recovered [14]: 92.1 ± 13.6 % dose | % Dose Recovered, Urine [14]: 27.1 ± 20.0 % dose | % Dose Recovered, VOCs [14]: 1.75 ± 0.319 % dose | excretion in urine (mice, gavage, range over groups): 16–43% | excreted as exhaled CO2 (mice, range over groups): 13–22% | total percentage of administered dose recovered (mouse studies, range over groups): 82–99% | excreted as exhaled CO2 [2]: 3–22% | excreted in urine [2]: 16–69% | tissue retention [2]: 21–44% | Estimated percentage of area of DMAE peak in urine chromatogram ([3]; Mouse/Female, [^14C]DMAE 10 mg/kg): 8% | Estimated percentage of area of DMAE peak in urine chromatogram ([3]; Mouse/Female, [^14C]DMAE 100 mg/kg): 82% | Estimated percentage of area of DMAE peak in urine chromatogram ([3]; Mouse/Female, [^14C]DMAE 500 mg/kg): 66% | Estimated percentage of area of DMAE peak in urine chromatogram ([3]; Mouse/Male, [^14C]DMAE 500 mg/kg): 100% | Estimated percentage of area of DMAE peak in urine chromatogram ([4]; Rat/Female, [^14C]DMAE 500 mg/kg, Oral): 55% | Estimated percentage of area of DMAE peak in urine chromatogram ([4]; Rat/Male, [^14C]DMAE 10 mg/kg, IV): 3% | Estimated percentage of area of DMAE peak in urine chromatogram ([4]; Rat/Male, [^14C]DMAE 10 mg/kg, Oral): 95% | Estimated percentage of area of DMAE peak in urine chromatogram ([4]; Rat/Male, [^14C]DMAE 100 mg/kg, Oral): 56% | Estimated percentage of area of DMAE peak in urine chromatogram ([4]; Rat/Male, [^14C]DMAE 500 mg/kg, Oral): 34% | % of IV dose present in the plasma [5]: 0.16% | administered dose recovered in tissues (excluding GI tract) ([6]; Wistar Han rats, oral, 24 h post-exposure, range over groups): 21–29% | % Dose Recovered, Feces [6, 15]: 0.549 ± 0.147 % dose | % Dose Recovered, Tissues and GI Tract (includes contents) [6, 15]: 27.4 ± 1.40 % dose | % Dose Recovered, Total Recovered [6, 15]: 98.4 ± 0.800 % dose | % Dose Recovered, VOCs [6, 15]: 0.818 ± 0.456 % dose | % Dose Recovered, CO2 ([6]; female Wistar Han rats, gavage 500 mg/kg, 24 h, listed as [^14C]DMAE, 500 mg/kg): 6.09 ± 0.810 % dose | % Dose Recovered, CO2 [6, 16]: 3.52 ± 0.780 % dose | % Dose Recovered, Feces [6, 16]: 0.330 ± 0.092 % dose | % Dose Recovered, Tissues and GI Tract (includes contents) [6, 16]: 38.5 ± 2.30 % dose | % Dose Recovered, VOCs [6, 16]: 0.230 ± 0.029 % dose | % Dose Recovered, Urine ([6]; male Wistar Han rats, IV 10 mg/kg, 24 h, 10 mg/kg): 39 % dose | % Dose Recovered, Total Recovered [6, 17]: 82 % dose and 81.8 ± 7.10 % dose | % Dose Recovered, Urine [6, 17]: 39.2 ± 7.80 % dose | % Dose Recovered, CO2 [6, 18]: 3.67 ± 0.440 % dose | % Dose Recovered, Feces [6, 18]: 0.206 ± 0.242 % dose | % Dose Recovered, Tissues and GI Tract (includes contents) [6, 18]: 33.9 ± 2.20 % dose | % Dose Recovered, VOCs [6, 18]: 0.153 ± 0.037 % dose | percent radioactivity remaining in all tissues, excluding GI tract [6, 18]: ~28% | % Dose Recovered, Total Recovered ([6]; male Wistar Han rats, gavage 10 mg/kg, 24 h, listed as [^14C]DMAE, 10 mg/kg): 95 % dose and 94.9 ± 3.20 % dose
